# Patent publication US9115106B2, “Use of 5-hydroxy-2-hydroxymethyl-γ-pyrone (HMP) as a leishmanicidal agent” (UNIVERSIDADE FEDERAL DO PARA, priority 2008, dated 2015)
# Where “and” joins values, the source holds several entries; their conditions need not be identical. Equal entries are not always repeated.
# What was measured:
# Leishmania promastigotes = test: Leishmanicidal activity on promastigotes; format: cell-based, L. amazonensis; settings: 50 μg/mL
# [1] = tested on: L. amazonensis amastigotes in infected macrophages; test: Leishmanicidal activity on amastigotes during in vitro infection of macrophages; format: cell-based
# Description: (§1) The peritoneal murine macrophage cells were cultured at 37° C. and 5% CO2 in Dulbecco's modified Eagle's medium (DMEM) supplemented with 10% heat-inactivated sterile filtered fetal bovine serum (FCS), 10 mM Hepes, pH 7.3, 100 U/mL penicillin and 100 µg/mL streptomycin (all from Gibco BRL/Life Technologies, Middlesex, UK). Cells were used after 24 hours of culture. L. amazonensis promastigotes were obtained from the Evandro Chagas Institute in NNN medium and maintained at 26° C. in RPMI1640 medium. Host cells were cultivated and infected or not with L. amazonensis, before treating or not with HMP at the same concentrations described previously.
# [2] = tested on: peritoneal murine macrophage cells; test: Cellular viability by MTT and Neutral Red assays; format: cell-based; settings: 10, 20 and 50 μg/mL HMP in DMEM
# Description: The peritoneal murine macrophage cells were cultured at 37° C. and 5% CO2 in Dulbecco's modified Eagle's medium (DMEM) supplemented with 10% heat-inactivated sterile filtered fetal bovine serum (FCS), 10 mM Hepes, pH 7.3, 100 U/mL penicillin and 100 µg/mL streptomycin (all from Gibco BRL/Life Technologies, Middlesex, UK). Cells were used after 24 hours of culture. […] Viability analyses performed by through Thiazolyl Blue (MTT) e Neutral Red (NR) assays.
# [3] = tested on: host cells infected with L. amazonensis; test: Superoxide production, histochemical assay with Nitro Blue Tetrazolium (NBT); format: cell-based, murine; settings: 50 μg/mL, compared with control cells
# Description: as §1, with “culture.” for “culture. L. amazonensis promastigotes were obtained from the Evandro Chagas Institute in NNN medium and maintained at 26° C. in RPMI1640 medium.”
# [4] = tested on: peritoneal murine macrophage cells; test: Morphological analysis of host cells by light, fluorescence and electron microscopy; format: cell-based; settings: treated cells compared with control cells
# Description: The peritoneal murine macrophage cells were cultured at 37° C. and 5% CO2 in Dulbecco's modified Eagle's medium (DMEM) supplemented with 10% heat-inactivated sterile filtered fetal bovine serum (FCS), 10 mM Hepes, pH 7.3, 100 U/mL penicillin and 100 µg/mL streptomycin (all from Gibco BRL/Life Technologies, Middlesex, UK). Cells were used after 24 hours of culture. Firstly, morphological alterations were observed by light and fluorescence microscopy, as well as transmission and scanning electron microscopy in host cells, treated or not with 10, 20 and 50 μg/mL of HMP diluted in DMEM. Viability analyses performed by through Thiazolyl Blue (MTT) e Neutral Red (NR) assays.
# leukemia P388 = leukemia P388 in mice; cited from earlier work
# rats = settings: cited from earlier work
# thyroid = settings: continued administration of high doses, rats; cited from earlier work
# tyrosinases 1 and 2 = settings: Schistosoma mansoni eggs; cited from earlier work
# [5] = ideal doses of consumption; no risk in doses of 0.03-0.06 mg/kg/day; cited from earlier work
# [6] = tested on: bacteria from various genera; settings: Aerobacter, Bacillus, Escherichia, Staphylococcus and other genera; cited from earlier work
# melasma = settings: HMP added to trichloroacetic acid and glycolic acid mixture; cited from earlier work
# [7] = estimated; cited from earlier work
# [8] = water, ethanol, or acetone; cited from earlier work
# [9] = tested on: bacteria (bacilos, Salmonella); settings: cited from earlier work
smiles,measurement,setting,value
"O=c1cc(CO)occ1O [HMP, 5-hydroxy-2-hydroxymethyl-γ-pyrone]",inhibition at 50 µg/mL,Leishmania promastigotes,68%
same,minimal concentration with leishmanicidal activity,[1]; activating host cell microbicidal response,50 µg/mL
same,reduction in amastigotes during in vitro infection,[1]; cells treated with 50 μg/mL,79%
same,effect on intracellular amastigote (ultrastructural observations),[1]; parasites inside the macrophages,causing morphological alterations and death
same,cytotoxic effect by MTT and NR assays,[2],not due to unspecific cytotoxic effect
same,superoxide production (NBT),[3],greater superoxide production
same,host cell activation (morphology),[4],increase on actin filament polymerization and spreading
same,antitumoural activity,leukemia P388,positive effects of antitumoural activity
same,teratogenic effect,rats,did not cause any teratogenic effect
same,thyroid tumour induction,thyroid,induction of thyroid adenomas
same,inhibition of tyrosinase activity,tyrosinases 1 and 2,inhibit the activity of tyrosinases 1 and 2
same,toxic or genotoxic effects,[5],does not contain toxic or genotoxic effects
same,antibacterial activity,[6],inhibition of bacteria from various genera
same,effect on melasma treatment,melasma,improved treatment of melasma
same,pKa,[7],7.90 and 8.03
same,solubility,[8],freely soluble
same,mutagenicity,[9],evidence in the literature regarding the mutagenicity of HMP in bacteria
